According to US11986532B2 (Arvinas Operations, Inc., priority 2021, dated 2024):
Read-outs that look alike come from different tables or passages of the source.

Molecular target: T1, BCL6 (Homo sapiens, UniProt P41182)
T1 construct: endogenous in cells; host or cells: T47D breast cancer epithelial cells
Assay: Immunofluorescence protocol for high content imaging of BCL6 (degradation) in T47D cells, 3 days compound treatment
Type: cell-based
Conditions: for DC50: read-out: Mean DC50 (nM)* category; for Dmax: read-out: Mean Dmax (%)** category
In short: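 For degradation, compound series (3-fold, 11 points, top 0.1 or 1 μM final) were added to adherent T47D cultures for 3 days. BCL6 immunostaining used a rabbit antibody at 1:300 and an Alexa-488 secondary, with imaging at 10× magnification.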

[1] = T47D cells, 3 days compound treatment

SMILES | DC50 [1] [nM] | Dmax [1] [%] | Dmax (T47D) [%] | DC50 [nM]
CNC(=O)COc1cc2cc(Nc3nc(N4CCN(CC5CCN(c6cc7c(c(OC)c6)C(=O)N(C6CCC(=O)NC6=O)C7)CC5)CC4)ncc3Cl)ccc2n(C(C)C)c1=O (centres unmarked) [Compound 26] | < 10 | 50 to 70 |  | 
CNC(=O)COc1cc2cc(Nc3nc(N4CCN(CC5CC6(CCN(c7cccc8c7CN(C7CCC(=O)NC7=O)C8=O)CC6)C5)CC4)ncc3Cl)ccc2n(C(C)C)c1=O (centres unmarked) [Compound 7, 2-{[6-({5-chloro-2-[4-({7-[2-(2,6-dioxopiperidin-3-yl)-1-oxo-2,3-dihydro-1H-isoindol-4-yl]-7-azaspiro[3.5]nonan-2-yl}methyl)piperazin-1-yl]pyrimidin-4-yl}amino)-2-oxo-1-(propan-2-yl)-1,2-dihydroquinolin-3-yl]oxy}-N-methylacetamide] | < 10 | ≥ 70 |  | 
CNC(=O)COc1cc2cc(Nc3nc(N4CCC(CN5CC6(CCN(c7ccc8c(c7OC)CN(C7CCC(=O)NC7=O)C8=O)CC6)C5)CC4)ncc3Cl)ccc2n(C(C)C)c1=O (centres unmarked) [Compound 88, 2-{[6-({5-chloro-2-[4-({7-[2-(2,6-dioxopiperidin-3-yl)-4-methoxy-1-oxo-2,3-dihydro-1H-isoindol-5-yl]-2,7-diazaspiro[3.5]nonan-2-yl}methyl)piperidin-1-yl]pyrimidin-4-yl}amino)-2-oxo-1-(propan-2-yl)-1,2-dihydroquinolin-3-yl]oxy}-N-methylacetamide] | < 10 | < 50 |  | 
CNC(=O)COc1cc2cc(Nc3nc(N4CCC(O[C@H]5C[C@H](N6CCC(O)(c7ccc8c(c7)C(=O)N(C7CCC(=O)NC7=O)C8=O)CC6)C5)CC4)ncc3Cl)ccc2n(C(C)C)c1=O (some centres unmarked) [Compound 275, 2-({6-[(5-chloro-2-{4-[(1r,3r)-3-{4-[2-(2,6-dioxopiperidin-3-yl)-1,3-dioxoisoindol-5-yl]-4-hydroxypiperidin-1-yl}cyclobutoxy]piperidin-1-yl}pyrimidin-4-yl)amino]-1-isopropyl-2-oxoquinolin-3-yl}oxy)-N-methylacetamide] |  |  | ≥ 70 | < 10
CNC(=O)COc1cc2cc(Nc3nc(N4CCC(O[C@H]5C[C@H](N6CCC(c7ccc8c(c7)C(=O)N(C7CCC(=O)NC7=O)C8=O)C(F)(F)C6)C5)CC4)ncc3Cl)ccc2n(C(C)C)c1=O (some centres unmarked) [Compound 137, 2-({6-[(5-chloro-2-{4-[(1r,3r)-3-{4-[2-(2,6-dioxopiperidin-3-yl)-1,3-dioxo-2,3-dihydro-1H-isoindol-5-yl]-3,3-difluoropiperidin-1-yl}cyclobutoxy]piperidin-1-yl}pyrimidin-4-yl)amino]-2-oxo-1-(propan-2-yl)-1,2-dihydroquinolin-3-yl}oxy)-N-methylacetamide] | ≥ 100 | ≥ 70 |  | 
CNC(=O)COc1cc2cc(Nc3nc(N4CCN(CC5CCN(c6ccc(OC)c7c6CN(C6CCC(=O)NC6=O)C7=O)CC5)CC4)ncc3Cl)ccc2n(C(C)C)c1=O (centres unmarked) [Compound 121, 2-{[6-({5-chloro-2-[4-({1-[2-(2,6-dioxopiperidin-3-yl)-7-methoxy-1-oxo-2,3-dihydro-1H-isoindol-4-yl]piperidin-4-yl}methyl)piperazin-1-yl]pyrimidin-4-yl}amino)-2-oxo-1-(propan-2-yl)-1,2-dihydroquinolin-3-yl]oxy}-N-methylacetamide] | < 10 | 50 to 70 |  | 
CNC(=O)COc1cc2cc(Nc3nc(N4CCC(O[C@H]5C[C@H](N6C7CCC6CN(c6ccc8c(c6F)CN(C6CCC(=O)NC6=O)C8=O)C7)C5)CC4)ncc3Cl)ccc2n(C(C)C)c1=O (some centres unmarked) [Compound 406, 2-({6-[(5-chloro-2-{4-[(1r,3r)-3-{3-[2-(2,6-dioxopiperidin-3-yl)-4-fluoro-1-oxo-2,3-dihydro-1H-isoindol-5-yl]-3,8-diazabicyclo [3.2.1]octan-8-yl}cyclobutoxy]piperidin-1-yl}pyrimidin-4-yl)amino]-2-oxo-1-(propan-2-yl)-1,2-dihydroquinolin-3-yl}oxy)-N-methylacetamide] |  |  | 50 to 70 | < 10
CNC(=O)COc1cc2cc(Nc3nc(N4CCC(O[C@H]5C[C@H](N6CCC7(CC6)CN(c6ccc8c(c6F)CN(C6CCC(=O)NC6=O)C8=O)C7)C5)CC4)ncc3Cl)ccc2n(C(C)C)c1=O (some centres unmarked) [Compound 410, 2-({6-[(5-chloro-2-{4-[(1r,3r)-3-{2-[2-(2,6-dioxopiperidin-3-yl)-4-fluoro-1-oxo-2,3-dihydro-1H-isoindol-5-yl]-2,7-diazaspiro[3.5]nonan-7-yl}cyclobutoxy]piperidin-1-yl}pyrimidin-4-yl)amino]-2-oxo-1-(propan-2-yl)-1,2-dihydroquinolin-3-yl}oxy)-N-methylacetamide] |  |  | ≥ 70 | < 10
CNC(=O)COc1cc2c(F)c(Nc3nc(N4CCC(CN5CCC6(CC5)CN(c5ccc7c(c5)CN(C5CCC(=O)NC5=O)C7=O)C6)CC4)ncc3Cl)ccc2n(C(C)C)c1=O (centres unmarked) [Compound 161, 2-{[6-({5-chloro-2-[4-({2-[2-(2,6-dioxopiperidin-3-yl)-1-oxo-2,3-dihydro-1H-isoindol-5-yl]-2,7-diazaspiro[3.5]nonan-7-yl}methyl)piperidin-1-yl]pyrimidin-4-yl}amino)-5-fluoro-2-oxo-1-(propan-2-yl)-1,2-dihydroquinolin-3-yl]oxy}-N-methylacetamide] | < 10 | ≥ 70 |  | 
CNC(=O)COc1cc2cc(Nc3nc(N4CCC(O[C@H]5C[C@H](N6CCC(c7cc8c(cc7Cl)C(=O)N(C7CCC(=O)NC7=O)C8)CC6)C5)CC4)ncc3Cl)ccc2n(C(C)C)c1=O (some centres unmarked) [Compound 329, 2-({6-[(5-chloro-2-{4-[(1r,3r)-3-{4-[6-chloro-2-(2,6-dioxopiperidin-3-yl)-1-oxo-2,3-dihydro-1H-isoindol-5-yl]piperidin-1-yl}cyclobutoxy]piperidin-1-yl}pyrimidin-4-yl)amino]-2-oxo-1-(propan-2-yl)-1,2-dihydroquinolin-3-yl}oxy)-N-methylacetamide] |  |  | 50 to 70 | < 10
CNC(=O)COc1cc2c(F)c(Nc3nc(N4CCC(O[C@H]5C[C@H](N6CCC(c7ccc8c(c7F)CN([C@H]7CCC(=O)NC7=O)C8=O)CC6)C5)CC4)ncc3Cl)ccc2n(C(C)C)c1=O [Compound 380, 2-({6-[(5-chloro-2-{4-[(1r,3r)-3-(4-{2-[(3S)-2,6-dioxopiperidin-3-yl]-4-fluoro-1-oxo-2,3-dihydro-1H-isoindol-5-yl}piperidin-1-yl)cyclobutoxy]piperidin-1-yl}pyrimidin-4-yl)amino]-5-fluoro-2-oxo-1-(propan-2-yl)-1,2-dihydroquinolin-3-yl}oxy)-N-methylacetamide] |  |  | 50 to 70 | < 10
CNC(=O)COc1cc2cc(Nc3nc(N4CCC5(CCN(CC6CCN(c7ccc8c(c7)C(=O)N(C7CCC(=O)NC7=O)C8=O)CC6)C5)C4)ncc3Cl)ccc2n(C(C)C)c1=O (centres unmarked) [Compound 4, 2-{[6-({5-chloro-2-[7-({1-[2-(2,6-dioxopiperidin-3-yl)-1,3-dioxo-2,3-dihydro-1H-isoindol-5-yl]piperidin-4-yl}methyl)-2,7-diazaspiro[4.4]nonan-2-yl]pyrimidin-4-yl}amino)-2-oxo-1-(propan-2-yl)-1,2-dihydroquinolin-3-yl]oxy}-N-methylacetamide] | 10 to 50 | < 50 |  | 
CNC(=O)COc1cc2cc(Nc3nc(N4CCC(CN5CCC6(CC5)CC(c5ccc7c(c5)C(=O)N(C5CCC(=O)NC5=O)C7=O)C6)CC4)ncc3Cl)ccc2n(C(C)C)c1=O (centres unmarked) [Compound 150, 2-{[6-({5-chloro-2-[4-({2-[2-(2,6-dioxopiperidin-3-yl)-1,3-dioxo-2,3-dihydro-1H-isoindol-5-yl]-7-azaspiro[3.5]nonan-7-yl}methyl)piperidin-1-yl]pyrimidin-4-yl}amino)-2-oxo-1-(propan-2-yl)-1,2-dihydroquinolin-3-yl]oxy}-N-methylacetamide] | 10 to 50 | 50 to 70 |  | 
CNC(=O)COc1cc2cc(Nc3nc(N4CCC(CN5CCC6(CC5)CCN6c5cccc6c5C(=O)N(C5CCC(=O)NC5=O)C6=O)CC4)ncc3Cl)ccc2n(C(C)C)c1=O (centres unmarked) [Compound 333, 2-{[6-({5-chloro-2-[4-({1-[2-(2,6-dioxopiperidin-3-yl)-1,3-dioxo-2,3-dihydro-1H-isoindol-4-yl]-1,7-diazaspiro[3.5]nonan-7-yl}methyl)piperidin-1-yl]pyrimidin-4-yl}amino)-2-oxo-1-(propan-2-yl)-1,2-dihydroquinolin-3-yl]oxy}-N-methylacetamide] |  |  | ≥ 70 | < 10
CNC(=O)COc1cc2cc(Nc3nc(N4CCC(O[C@H]5C[C@H](N6CCC(c7ccc8c(c7F)CN([C@@H]7CCC(=O)NC7=O)C8=O)CC6)C5)CC4)ncc3Cl)ccc2n(C(C)C)c1=O [Compound 384, 2-({6-[(5-chloro-2-{4-[(1r,3r)-3-(4-{2-[(3R)-2,6-dioxopiperidin-3-yl]-4-fluoro-1-oxo-2,3-dihydro-1H-isoindol-5-yl}piperidin-1-yl)cyclobutoxy]piperidin-1-yl}pyrimidin-4-yl)amino]-2-oxo-1-(propan-2-yl)-1,2-dihydroquinolin-3-yl}oxy)-N-methylacetamide] |  |  | 50 to 70 | < 10
CNC(=O)COc1cc2cc(Nc3nc(N4CCC(CN5CCC6(CC5)CN(c5ccc7c(c5)C(=O)N(C5CCC(=O)NC5=O)C7=O)C6)CC4)ncc3Cl)ccc2n(C2CC2)c1=O (centres unmarked) [Compound 50, 2-{[6-({5-chloro-2-[4-({2-[2-(2,6-dioxopiperidin-3-yl)-1,3-dioxo-2,3-dihydro-1H-isoindol-5-yl]-2,7-diazaspiro[3.5]nonan-7-yl}methyl)piperidin-1-yl]pyrimidin-4-yl}amino)-1-cyclopropyl-2-oxo-1,2-dihydroquinolin-3-yl]oxy}-N-methylacetamide] | < 10 | 50 to 70 |  | 
